Active and inactive are the calls of the source. No rule for the calls is given here.
System: HEK-293T cytotoxicity, luminescence
Test: cytotoxicity in HEK-293T cells, dose response, cytotoxicity control for BCR NF-kB inhibitor project, luminescence, B-cell screen hits (AID 489021)

COc1ccc(/C=C\C(=O)O[C@@H]2C(O)C(O[C@@H]3OC(C)[C@H](O[C@@H]4OCC(O[C@H]5O[C@H](CO)[C@@H](O)C(O)C5O)C(O)C4O)C(O)C3O)[C@H](OC(=O)[C@]34CCC(C)(C)C[C@@H]3C3=CCC5[C@@]6(C)CC(O)C(O[C@@H]7OC(CO)C(O)[C@H](O)[C@H]7O)[C@@](C)(C(=O)O)C6CC[C@@]5(C)[C@]3(CO)CC4)O[C@H]2C)cc1 (stereo partly specified)
IC50: 60.7 µM (inactive)

Source: PubChem BioAssay AID489021 (Sanford-Burnham Center for Chemical Genomics, 2010)
